Test results reported in patent US12275734B1, “Pleuromutilin onium salt derivative containing a 3H-imidazo[4,5-c]pyridine side chain, and a preparation method and application thereof” (SHAANXI UNIVERSITY OF SCIENCE AND TECHNOLOGY, priority 2024, dated 2025).
Like-named read-outs stand apart in the source and are kept apart here.

How the values were obtained:
Assay type in all cases: cell-based
[1] = test system: methicillin-resistant Staphylococcus aureus-171; test: MIC, clinical isolates; conditions: MRSA, read-out: Antibacterial activity (MIC) MRSA^b
Method: (§1) The minimum inhibitory concentration of 3H-imidazo[4,5-C]pyridine pleuromutilin onium salt derivatives against the tested pathogenic microorganisms were determined by broth microdilution method, with valnemulin and retapamulin as positive controls.
(§2) The experimental strains included resistant Gram-positive bacteria: Methicillin-resistant S. aureus ATCC 33591; Methicillin-resistant S. aureus ATCC 43300; S. aureus ATCC 29213; Methicillin-resistant S. epidermidis ATCC 51625. Resistant Gram-negative bacteria: A. baumannii ATCC 19606; S. enterica ATCC14028; E. coli ATCC 25922; E. coli CMCC 44103. 9 clinically isolated resistant strains: MRSA-171; MRSA-575; MRSA-206; MRSA-222; MRSA-596; VRE-80; MDR-PA-126; MDR-KP-893; CR-AB-882.
(§3) (1) Preparation of MHB medium: Weigh 18.0 g of MHB medium pre-made powder, add it to 1 L of distilled water, heat and boil until completely dissolved, divide it into conical bottles, sterilize it by high pressure at 121° C. for 15 minutes, and set aside.
(§4) (2) Cultivate the experimental strain to the logarithmic growth phase: Under sterile conditions, inoculate the experimental strain into fresh MHB medium and culture it in a 37° C. constant temperature and humidity incubator for 16-24 hours. Adjust the bacterial solution concentration to 1.5×10^8 CFU/mL and then dilute it 200 times for later use.
(§5) (3) Preparation of storage solution: Weigh the sample to be tested, dissolve it in 1% DMSO solution, and prepare a storage solution with a concentration of 2560 μg/mL; weigh the positive control, dissolve it in sterile distilled water, and prepare a storage solution with a concentration of 2560 μg/mL.
(§6) (4) Preparation of bacterial suspension: Under sterile conditions, the experimental strain cultured to the logarithmic growth phase was calibrated to a 0.5 McFarland unit turbidity standard using MHB medium and then diluted at a ratio of 1:200 to prepare a bacterial suspension with a concentration of 5×10^5 CFU/mL for later use.
(§7) (5) Determination of MIC by two-fold microdilution method: Take a sterile 96-well plate, add 10 μL of the test compound at a concentration of 2560 μg/mL, and perform serial dilutions by the two-fold dilution method. At the same time, set up a negative control group without drug. Then add 190 μL of diluted bacterial solution to each well, so that the final bacterial solution concentration in each well is 5×10^5 CFU/mL, and incubate in a 37° C. constant temperature and humidity chamber for 24 hours.

[2] = test system: methicillin-resistant Staphylococcus aureus-596; test: MIC, clinical isolates; conditions: MRSA, read-out: Antibacterial activity (MIC) MRSA^f
Method: as §1, §2, §3, §4, §5, §6, §7

[3] = test system: multidrug-resistant Pseudomonas aeruginosa-126; test: MIC, clinical isolates; conditions: read-out: Antibacterial activity (MIC) MDR-PA^h
Method: as §1, §2, §3, §4, §5, §6, §7

[4] = test system: methicillin-resistant Staphylococcus aureus-222; test: MIC, clinical isolates; conditions: MRSA / MRSE, read-out: Antibacterial activity (MIC) MRSE^e
Method: as §1, §2, §3, §4, §5, §6, §7

[5] = test system: methicillin-resistant Staphylococcus aureus-575; test: MIC, clinical isolates; conditions: MRSA, read-out: Antibacterial activity (MIC) MRSA^c
Method: as §1, §2, §3, §4, §5, §6, §7

[6] = test system: multidrug-resistant Klebsiella pneumoniae-893; test: MIC, clinical isolates; conditions: clinical isolate MDR-KP-893
Method: as §1, §2, §3, §4, §5, §6, §7

[7] = test system: carbapenem-resistant Acinetobacter baumannii-882; test: MIC, clinical isolates; conditions: read-out: Antibacterial activity (MIC) CR-AB^j
Method: as §1, §2, §3, §4, §5, §6, §7

[8] = test system: vancomycin-resistant Enterococcus-80; test: MIC, clinical isolates; conditions: VRE, read-out: Antibacterial activity (MIC) VRE^g
Method: as §1, §2, §3, §4, §5, §6, §7

[9] = test system: methicillin-resistant Staphylococcus aureus-206; test: MIC, clinical isolates; conditions: MRSA, read-out: Antibacterial activity (MIC) MRSA^d
Method: as §1, §2, §3, §4, §5, §6, §7

A. baumannii ATCC 19606 = test: MIC, broth microdilution; conditions: Acinetobacter baumannii
Method: as §1, §2, §3, §4, §5, §6, §7

S. enterica ATCC14028 = test: MIC, broth microdilution; conditions: Salmonella enterica
Method: as §1, §2, §3, §4, §5, §6, §7

S. aureus ATCC 29213 = test: MIC, broth microdilution; conditions: Staphylococcus aureus
Method: as §1, §2, §3, §4, §5, §6, §7

[10] = test system: Methicillin-resistant S. aureus ATCC 33591; test: MIC, broth microdilution; conditions: Staphylococcus aureus, ATCC 33591 / MRSA, read-out: Minimum inhibitory concentration MRSA^b
Method: as §1, §2, §3, §4, §5, §6, §7

[11] = test system: Methicillin-resistant S. epidermidis ATCC 51625; test: MIC, broth microdilution; conditions: Staphylococcus epidermidis, ATCC 51625 / MRSE, read-out: Minimum inhibitory concentration MRSE^e
Method: as §1, §2, §3, §4, §5, §6, §7

E. coli ATCC 25922 = test: MIC, broth microdilution; conditions: Escherichia coli
Method: as §1, §2, §3, §4, §5, §6, §7

E.coli CMCC 44103 = test: MIC, broth microdilution; conditions: Escherichia coli
Method: as §1, §2, §3, §4, §5, §6, §7

[12] = test system: Methicillin-resistant S. aureus ATCC 43300; test: MIC, broth microdilution; conditions: Staphylococcus aureus, ATCC 43300 / MRSA, read-out: Minimum inhibitory concentration MRSA^c
Method: as §1, §2, §3, §4, §5, §6, §7

A549 Cells = test: Cytotoxicity, Cell Counting Kit-8; conditions: CCK-8, 24 hours incubation; read-out: CC50 A549 Cells
Method: (§8) Cell Counting Kit-8 was used to evaluate the cytotoxicity of the compounds.
(§9) (4) Cell culture: HepG2, HEK293 and A549 cells were evenly dispersed in culture medium, seeded into 96-well plates, and cultured under appropriate environmental conditions to keep the cells completely attached to the well walls.
(§10) (5) Compound treatment: Add different concentrations of compounds I-8 and I-9 to each well (the concentrations are 0.78, 1.56, 3.13, 6.25, 12.5, 25, 50 and 100 μM, respectively, and perform 6 parallel experiments). Set up a blank control group and a normal control group. After incubation for 24 hours, observe the cell condition, which observed under a microscope.
(§11) (6) CCK-8 solution treatment: Add CCK-8 solution to each well and incubate for 4 hours to allow it to react with the cells.
(§12) (7) Absorbance determination: Use a full-wavelength scanning multifunctional reader, place the 96-well plate in the instrument, oscillate to mix to make the color evenly distributed, and measure the absorbance value at 490 nm.
(§13) (8) Data analysis: Based on the measured absorbance values, the cell survival rate at different concentrations can be calculated. The median cytotoxic concentration was used to evaluate the cytotoxicity of the compound to A549, HEK293 and HepG2 cells.

HEK293 Cells = test: Cytotoxicity, Cell Counting Kit-8; conditions: CCK-8, 24 hours incubation; read-out: CC50 HEK293 Cells
Method: as §8, §9, §10, §11, §12, §13

HepG2 Cells = test: Cytotoxicity, Cell Counting Kit-8; conditions: CCK-8, 24 hours incubation; read-out: CC50 HepG2 Cells
Method: as §8, §9, §10, §11, §12, §13

[13] = ATCC19606, A. baumannii ATCC 19606, read-out: Minimum inhibitory concentration A.b.^f
[14] = S. enterica ATCC14028, read-out: Minimum inhibitory concentration S.e.^g
[15] = ATCC29213, S. aureus ATCC 29213, read-out: Minimum inhibitory concentration S.a.^d
[16] = Methicillin-resistant S. aureus ATCC 33591
[17] = Methicillin-resistant S. epidermidis ATCC 51625
[18] = ATCC25922, E. coli ATCC 25922, read-out: Minimum inhibitory concentration E.c.^h
[19] = CMCC44103, E.coli CMCC 44103, read-out: Minimum inhibitory concentration E.c.^i
[20] = Methicillin-resistant S. aureus ATCC 43300

C=C[C@]1(C)C[C@@H](OC(=O)CSc2nc3cc[n+](Cc4ccc(C#N)cc4)cc3[nH]2)[C@]2(C)[C@H](C)CC[C@]3(CCC(=O)[C@H]32)[C@@H](C)[C@@H]1O [Compound h, 5-(4-cyanobenzyl)-2-((2-(((3aR,4R,5R,7S,8S,9R,9aS,12R)-8-hydroxy-4,7,9,12-tetramethyl-3-oxo-7-vinyldecahydro-4,9a-propancyclopenta[8]cyclo-5-yl)oxy)-2-oxoethyl)thio)-3H-imidazo[4,5-C]pyridine-5-ium]
MIC [1]: 16 µg/mL
MIC [2]: 8 µg/mL
MIC [3]: 32 µg/mL
MIC [4]: 16 µg/mL
MIC [5]: 32 µg/mL
Antibacterial activity (MIC) MDR-KP^i [6]: 16 µg/mL
MIC [7]: 64 µg/mL
MIC [8]: 2 µg/mL
MIC [9]: 4 µg/mL
MIC (A. baumannii ATCC 19606; ATCC19606, read-out: Minimum inhibitory concentration A.b.^f): 1 µg/mL
MIC (S. enterica ATCC14028; ATCC14028, read-out: Minimum inhibitory concentration S.e.^g): 2 µg/mL
MIC (S. aureus ATCC 29213; ATCC29213, read-out: Minimum inhibitory concentration S.a.^d): 0.5 µg/mL
MIC [10]: 2 µg/mL
MIC [11]: 0.25 µg/mL
MIC (E. coli ATCC 25922; ATCC25922, read-out: Minimum inhibitory concentration E.c.^h): 0.5 µg/mL
MIC (E.coli CMCC 44103; CMCC44103, read-out: Minimum inhibitory concentration E.c.^i): 2 µg/mL
MIC [12]: 0.5 µg/mL
CC50 (A549 Cells): > 100 µM
CC50 (HEK293 Cells): > 100 µM
CC50 (HepG2 Cells): 96.3 µM

C=C[C@]1(C)C[C@@H](OC(=O)CSc2nc3cc[n+](Cc4cc(F)ccc4C#N)cc3[nH]2)[C@]2(C)[C@H](C)CC[C@]3(CCC(=O)[C@H]32)[C@@H](C)[C@@H]1O [Compound m, 5-(2-cyano-5-fluorobenzyl)-2-((2-(((3aR,4R,5R,7S,8S,9R,9aS,12R)-8-hydroxy-4,7,9,12-tetramethyl-3-oxo-7-vinyldecahydro-4,9a-propancyclopenta[8]cyclo-5-yl)oxy)-2-oxoethyl)thio)-3H-imidazo[4,5-C]pyridine-5-ium]
MIC (A. baumannii ATCC 19606; [13]): 64 µg/mL
MIC (S. enterica ATCC14028; [14]): 32 µg/mL
MIC (S. aureus ATCC 29213; [15]): 32 µg/mL
MIC [10, 16]: 64 µg/mL
MIC [11, 17]: 64 µg/mL
MIC (E. coli ATCC 25922; [18]): 64 µg/mL
MIC (E.coli CMCC 44103; [19]): 32 µg/mL
MIC [12, 20]: 32 µg/mL

C=C[C@]1(C)C[C@@H](OC(=O)CSc2nc3cc[n+](Cc4ccc(C(C)(C)C)cc4)cc3[nH]2)[C@]2(C)[C@H](C)CC[C@]3(CCC(=O)[C@H]32)[C@@H](C)[C@@H]1O [Compound k, 5-(4-(tert-butyl)benzyl)-2-((2-(((3aR,4R,5R,7S,8S,9R,9aS,12R)-8-hydroxy-4,7,9,12-tetramethyl-3-oxo-7-vinyldecahydro-4,9a-propancyclopenta[8]cyclo-5-yl)oxy)-2-oxoethyl)thio)-3H-imidazo[4,5-C]pyridine-5-ium]
MIC (A. baumannii ATCC 19606; [13]): 16 µg/mL
MIC (S. enterica ATCC14028; [14]): 32 µg/mL
MIC (S. aureus ATCC 29213; [15]): 16 µg/mL
MIC [10, 16]: 8 µg/mL
MIC [11, 17]: 8 µg/mL
MIC (E. coli ATCC 25922; [18]): 32 µg/mL
MIC (E.coli CMCC 44103; [19]): 32 µg/mL
MIC [12, 20]: 32 µg/mL
